This is an account of results in patent US9883998B2, “Methods for lightening skin using arbutin compositions” (OMP, Inc., priority 2007, dated 2018).

For one assay, the system named is skin. The assay can be described thus: Skin lightening in volunteers by Minolta Chromameter b* parameter. Format: in vivo, human. The following applies: for dose dependence of skin lightening efficacy: 4% versus 7% arbutin in Examples 1 and 2 base formulas. The source says:
Ten volunteers between the ages of 18 and 60 years of age enrolled in the study. Volunteers included in the study were of Asian or Caucasian descent with a Fitzpatrick phototype III or above. Enrolled subjects were free of any systemic or dermatologic disorder, including a known history of allergies or other medical conditions which, in the opinion of the Medical Investigator, could interfere with the conduct of the study, interpretation of results, or increase the risk of adverse reactions. Moreover, volunteers had no clinically significant abnormal findings, based on their medical history, which may have affected study participation as determined by the investigator. Impaneled female volunteers were not pregnant (as assessed with a urine pregnancy test at the start of the study and every 4 weeks thereafter) and agreed to use suitable contraceptive methods throughout the duration of the study. All volunteers were willing to refrain from using any medications, moisturizers, sunscreens, fragrances or new personal care products/laundry detergents on the back for the duration of the study and were also willing to avoid sun exposure, on the back (ie, sunbathing), as best as possible and refrain from using tanning booths for the study duration. Furthermore, subjects agreed to avoid swimming for the entire study.
All volunteers reported to the clinical site every day, excluding weekends, for application of study products in an open label, un-blinded fashion. Study products and dosing were as follows:
All subjects had 2 cm^2 squares demarcated on their backs, with a plastic template adhered to the skin, for identification of treatment sites. […]
The safety of the formulations of Example 1 and Example 2 was assessed via Repeated Insult Patch Testing on 49 volunteers, in a separate study. All products used in the study presented herein were evaluated for safety through investigator scoring of the application sites at baseline, 4- and 8-weeks. […] Skin lightening was assessed via use of the Minolta CR-300 Chromameter® at baseline, 4- and 8-weeks. […]

A further assay concerns the target tyrosinase (Homo sapiens, UniProt P14679). The following applies: human melanocyte cultures; cited from earlier work.

Sequence of tyrosinase (P14679 19-529): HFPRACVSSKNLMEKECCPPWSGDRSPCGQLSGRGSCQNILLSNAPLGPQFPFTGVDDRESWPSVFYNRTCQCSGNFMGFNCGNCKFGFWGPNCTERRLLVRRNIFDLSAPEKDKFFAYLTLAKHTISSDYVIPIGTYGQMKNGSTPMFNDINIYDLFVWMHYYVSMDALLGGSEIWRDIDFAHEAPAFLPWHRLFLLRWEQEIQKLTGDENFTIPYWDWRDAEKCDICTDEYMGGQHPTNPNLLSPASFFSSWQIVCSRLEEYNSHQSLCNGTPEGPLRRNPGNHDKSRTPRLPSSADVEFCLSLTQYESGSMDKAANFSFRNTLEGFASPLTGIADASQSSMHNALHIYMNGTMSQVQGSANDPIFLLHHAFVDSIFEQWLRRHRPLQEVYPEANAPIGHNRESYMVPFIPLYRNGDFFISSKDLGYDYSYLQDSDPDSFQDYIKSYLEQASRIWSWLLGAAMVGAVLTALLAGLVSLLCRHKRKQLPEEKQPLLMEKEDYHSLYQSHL

For `OC[C@H]1O[C@@H](Oc2ccc(O)cc2)[C@H](O)[C@@H](O)[C@@H]1O` [Arbutin, hydroxy phenyl-b-D-glucopyranoside], the “dose dependence of skin lightening efficacy” value with skin is reported as “dose dependent”; with skin (listed as arbutin), “dose dependant”. Moreover, the “skin lightening efficacy of 7% arbutin versus 4% hydroquinone” value in the assay on skin (7% arbutin, relatively non-photoexposed skin, formulas similar to bleaching and correcting cream and Blender bases) is on record as “equally as efficacious as 4% hydroquinone”. The “tyrosinase inhibiting potency relative to hydroquinone” value on tyrosinase was “one-hundredth that of hydroquinone”.
